How the values were obtained:
A549 [1] = experiment: Induction of cell cycle arrest in human A549 cells assessed as accumulation of cells at G2 phase at 10 uM incubated for 48 hrs by PI staining based flow cytometry (reference value: 18.1%); type: toxicity; conditions: a549, 48 h
A549 [2] = experiment: Induction of cell cycle arrest in human A549 cells assessed as accumulation of cells at G2 phase at 0.1 uM incubated for 48 hrs by PI staining based flow cytometry (reference value: 18.1%); type: toxicity; conditions: a549, 48 h
NCI-H1975 [3] = experiment: Induction of cell cycle arrest in human NCI-H1975 cells assessed as accumulation of cells at S phase at 0.1 uM incubated for 48 hrs by PI staining based flow cytometry (reference value: 29.8%); type: functional
NCI-H1975 [4] = experiment: Induction of cell cycle arrest in human NCI-H1975 cells assessed as accumulation of cells at G2 phase at 0.1 uM incubated for 48 hrs by PI staining based flow cytometry (reference value: 19.3%); type: functional
NCI-H1975 [5] = experiment: Induction of cell cycle arrest in human NCI-H1975 cells assessed as accumulation of cells at G2 phase at 1 uM incubated for 48 hrs by PI staining based flow cytometry (reference value: 19.3%); type: functional
A-431 [6] = experiment: Induction of apoptosis in human A-431 cells assessed as early apoptotic cells at 1 uM incubated for 48 hrs by AnnexinV-FITC/PI staining based flow cytometry (reference value: 1.37%); type: toxicity, cell-based; conditions: a-431, 48 h
A549 [7] = experiment: Induction of cell cycle arrest in human A549 cells assessed as accumulation of cells at G1 phase at 0.1 uM incubated for 48 hrs by PI staining based flow cytometry (reference value: 52.4%); type: toxicity; conditions: a549, 48 h
A549 [8] = experiment: Induction of apoptosis in human A549 cells assessed as early apoptotic cells at 10 uM incubated for 48 hrs by AnnexinV-FITC/PI staining based flow cytometry (reference value: 3.89%); type: toxicity, cell-based; conditions: a549, 48 h
NCI-H1975 [9] = experiment: Induction of cell cycle arrest in human NCI-H1975 cells assessed as accumulation of cells at S phase at 10 uM incubated for 48 hrs by PI staining based flow cytometry (reference value: 29.8%); type: functional
[10] = Intrinsic clearance in human liver microsomes at 1 uM measured for 60 mins by LC-MS analysis; type: ADME, Microsome; conditions: read-out: CLH
A549 [11] = experiment: Induction of cell cycle arrest in human A549 cells assessed as accumulation of cells at G1 phase at 10 uM incubated for 48 hrs by PI staining based flow cytometry (reference value: 52.4%); type: toxicity; conditions: a549, 48 h
A549 [12] = experiment: Induction of cell cycle arrest in human A549 cells assessed as accumulation of cells at S phase at 10 uM incubated for 48 hrs by PI staining based flow cytometry (reference value: 29.4%); type: toxicity; conditions: a549, 48 h
A549 [13] = experiment: Induction of apoptosis in human A549 cells assessed as late apoptotic cells at 10 uM incubated for 48 hrs by AnnexinV-FITC/PI staining based flow cytometry (reference value: 0.51%); type: toxicity, cell-based; conditions: a549, 48 h
HCC827 [14] = experiment: Induction of apoptosis in human HCC827 cells assessed as late apoptotic cells at 10 uM incubated for 48 hrs by AnnexinV-FITC/PI staining based flow cytometry (reference value: 1.75%); type: functional
NCI-H1975 [15] = experiment: Induction of cell cycle arrest in human NCI-H1975 cells assessed as accumulation of cells at G2 phase at 10 uM incubated for 48 hrs by PI staining based flow cytometry (reference value: 19.3%); type: functional
HCC827 [16] = experiment: Induction of apoptosis in human HCC827 cells assessed as late apoptotic cells at 1 uM incubated for 48 hrs by AnnexinV-FITC/PI staining based flow cytometry (reference value: 1.75%); type: functional
NCI-H1975 [17] = experiment: Induction of cell cycle arrest in human NCI-H1975 cells assessed as accumulation of cells at G1 phase at 10 uM incubated for 48 hrs by PI staining based flow cytometry (reference value: 50.1%); type: functional
A-431 [18] = experiment: Induction of apoptosis in human A-431 cells assessed as late apoptotic cells at 0.1 uM incubated for 48 hrs by AnnexinV-FITC/PI staining based flow cytometry (reference value: 1.86%); type: toxicity, cell-based; conditions: a-431, 48 h
A-431 [19] = experiment: Induction of cell cycle arrest in human A-431 cells assessed as accumulation of cells at S phase at 10 uM incubated for 48 hrs by PI staining based flow cytometry (reference value: 30.5%); type: toxicity; conditions: a-431, 48 h
A549 [20] = experiment: Induction of cell cycle arrest in human A549 cells assessed as accumulation of cells at G2 phase at 1 uM incubated for 48 hrs by PI staining based flow cytometry (reference value: 18.1%); type: toxicity; conditions: a549, 48 h
HCC827 [21] = experiment: Induction of cell cycle arrest in human HCC827 cells assessed as accumulation of cells at G1 phase at 10 uM incubated for 48 hrs by PI staining based flow cytometry (reference value: 65.2%); type: functional
A-431 [22] = experiment: Induction of cell cycle arrest in human A-431 cells assessed as accumulation of cells at S phase at 1 uM incubated for 48 hrs by PI staining based flow cytometry (reference value: 30.5%); type: toxicity; conditions: a-431, 48 h
A-431 [23] = experiment: Induction of cell cycle arrest in human A-431 cells assessed as accumulation of cells at G2 phase at 0.1 uM incubated for 48 hrs by PI staining based flow cytometry (reference value: 21.7%); type: toxicity; conditions: a-431, 48 h
A-431 [24] = experiment: Induction of cell cycle arrest in human A-431 cells assessed as accumulation of cells at S phase at 0.1 uM incubated for 48 hrs by PI staining based flow cytometry (reference value: 30.5%); type: toxicity; conditions: a-431, 48 h
HCC827 [25] = experiment: Induction of apoptosis in human HCC827 cells assessed as early apoptotic cells at 1 uM incubated for 48 hrs by AnnexinV-FITC/PI staining based flow cytometry (reference value: 0.24%); type: functional
HCC827 [26] = experiment: Induction of cell cycle arrest in human HCC827 cells assessed as accumulation of cells at G2 phase at 1 uM incubated for 48 hrs by PI staining based flow cytometry (reference value: 25.9%); type: functional
HCC827 [27] = experiment: Induction of cell cycle arrest in human HCC827 cells assessed as accumulation of cells at G2 phase at 0.1 uM incubated for 48 hrs by PI staining based flow cytometry (reference value: 25.9%); type: functional
[28] = Cytotoxicity against human A549 cells harboring wild type EGFR assessed as reduction in cell viability measured after 72 hrs by MTT assay; type: toxicity, cell-based
A-431 [29] = experiment: Induction of apoptosis in human A-431 cells assessed as late apoptotic cells at 10 uM incubated for 48 hrs by AnnexinV-FITC/PI staining based flow cytometry (reference value: 1.86%); type: toxicity, cell-based; conditions: a-431, 48 h
A-431 [30] = experiment: Induction of cell cycle arrest in human A-431 cells assessed as accumulation of cells at G2 phase at 1 uM incubated for 48 hrs by PI staining based flow cytometry (reference value: 21.7%); type: toxicity; conditions: a-431, 48 h
HCC827 [31] = experiment: Induction of cell cycle arrest in human HCC827 cells assessed as accumulation of cells at S phase at 1 uM incubated for 48 hrs by PI staining based flow cytometry (reference value: 15.2%); type: functional

Compound | Activity (A549 [1]) [%] | Activity (A549 [2]) [%] | Activity (NCI-H1975 [3]) [%] | Activity (NCI-H1975 [4]) [%] | Activity (NCI-H1975 [5]) [%] | Activity (A-431 [6]) [%] | Activity (A549 [7]) [%] | Activity (A549 [8]) [%] | Activity (NCI-H1975 [9]) [%] | CLint scaled at 1 µM [10] [mL/min/kg] | Activity (A549 [11]) [%] | Activity (A549 [12]) [%] | Activity (A549 [13]) [%] | Activity (HCC827 [14]) [%] | Activity (NCI-H1975 [15]) [%] | Activity (HCC827 [16]) [%] | Activity (NCI-H1975 [17]) [%] | Activity (A-431 [18]) [%] | Activity (A-431 [19]) [%] | Activity (A549 [20]) [%] | also measured
C=CC(=O)Nc1cccc(Nc2nc(Nc3ccc(N4CCN(C)CC4)cc3)nc3ccc(F)cc23)c1 | 12.9 | 16.5 | 17.5 | 15.5 | 11.8 | 3.58 | 57.2 | 14.6 | 11.3 | 12.8 | 63.8 | 22.8 | 0.2 | 12.3 | 7.05 | 11.8 | 80.5 | 2.57 | 20.4 | 12 | Activity (HCC827 [21]): 81.1%; Activity (A-431 [22]): 27.6%; Activity (A-431 [23]): 17.4%; Activity (A-431 [24]): 30.1%; Activity (HCC827 [25]): 22.7%; Activity (HCC827 [26]): 12.2%; Activity (HCC827 [27]): 13.5%; IC50 at 72 h [28]: 4020 nM; Activity (A-431 [29]): 3.43%; Activity (A-431 [30]): 18.6%; Activity (HCC827 [31]): 8.07%
C=CC(=O)Nc1cc(Nc2nccc(-c3cn(C)c4ccccc34)n2)c(OC)cc1N(C)CCN(C)C [OSIMERTINIB] | 13.7 | 15.1 | 16.2 | 20.2 | 11.1 | 5.72 | 53.4 | 18.6 | 11.5 | 21.4 | 74.6 | 13.2 | 0.47 | 22.4 | 10.4 | 18 | 78.3 | 4.04 | 23.9 | 14 | Activity (HCC827 [21]): 79.5%; Activity (A-431 [22]): 28.1%; Activity (A-431 [23]): 19.9%; Activity (A-431 [24]): 30.6%; Activity (HCC827 [25]): 17.2%; Activity (HCC827 [26]): 10.9%; Activity (HCC827 [27]): 13.6%; IC50 at 72 h [28]: 682 nM; Activity (A-431 [29]): 19.4%; Activity (A-431 [30]): 19.6%; Activity (HCC827 [31]): 11.4%
